In patent publication US6596758B1, “Benzopyrans and benzoxepines, pharmaceutical compositions comprising them and preparation process” (Merck Patent GmbH, priority 1998, dated 2003):

How the values were obtained:
[1] = tested on: pGL3 reporter vector devoid of a PPAR response element; assay: pGL3 reporter vector devoid of a PPAR response element, SK-Hep1 cells; assay type: cell-based, human
Excerpt: (§1) Analysis of the activation of PPARα and PPARγ is based on the transfection of a DNA allowing the expression of a reporter gene (the gene of luciferase) under the control of the PPARs, either endogenous in the case of PPARγ of exogenous in the case of PPARα. The reporter plasmid J3TkLuc comprises three copies of the response element for PPARs of the human apo A-II gene (Staels, B et al. (1995), J. Clin. Invest., 95, 705-712) which are cloned upstream of the promoter of the thymidine kinase gene of the herpes simplex virus in the plasmid pGL3. This reporter gene was obtained by subcloning, in the plasmid pGL3, the plasmid J3TkCAT described above (Fajas, L et al. (1997), J. Biol. Chem., 272, 18779-18789). […] These cells were inoculated at the rate of 20,000 cells per well (96-well plates) and transfected with 150 ng of reporter DNA complexed with a mixture of lipids. In the case of the SK-Hep1 cells, an expression vector for PPARα, described by Sher, T. et al. (1993), Biochemistry, 32, 5598-5604, is cotransfected. After 5, hours, the cells are washed twice and incubated for 36 hours in the presence of the test compound in a fresh culture medium comprising 10% foetal calf serum. At the end of incubation, the cells are lysed and the luciferase activity is measured. This activity is expressed relative to the control value. […]

[2] = tested on: PPARγ; assay: PPARγ activation, luciferase reporter (J3TkLuc) in CV1 cells; assay type: cell-based, green monkey; details: 36 hours incubation, relative to the control value
Excerpt: (§2) The hypolipidaemic and hypoglycaemic effect of the compounds of the invention results from their ability to activate the PPARα and PPARγ isoforms.
as §1, with “After 5, hours, the cells are washed twice and incubated for 36 hours in the presence of the test compound in a fresh culture medium comprising 10% foetal calf serum.” left out, “measured.” for “measured. This activity is expressed relative to the control value.”

[3] = molecular target: T1, PPARα (Homo sapiens, UniProt Q07869); assay: PPARα activation, luciferase reporter (J3TkLuc) in SK-Hep1 cells cotransfected with PPARα expression vector; assay type: cell-based; details: 36 hours incubation, relative to the control value
T1 construct: expressed in transfected cells
T1 sequence (Q07869 1-468): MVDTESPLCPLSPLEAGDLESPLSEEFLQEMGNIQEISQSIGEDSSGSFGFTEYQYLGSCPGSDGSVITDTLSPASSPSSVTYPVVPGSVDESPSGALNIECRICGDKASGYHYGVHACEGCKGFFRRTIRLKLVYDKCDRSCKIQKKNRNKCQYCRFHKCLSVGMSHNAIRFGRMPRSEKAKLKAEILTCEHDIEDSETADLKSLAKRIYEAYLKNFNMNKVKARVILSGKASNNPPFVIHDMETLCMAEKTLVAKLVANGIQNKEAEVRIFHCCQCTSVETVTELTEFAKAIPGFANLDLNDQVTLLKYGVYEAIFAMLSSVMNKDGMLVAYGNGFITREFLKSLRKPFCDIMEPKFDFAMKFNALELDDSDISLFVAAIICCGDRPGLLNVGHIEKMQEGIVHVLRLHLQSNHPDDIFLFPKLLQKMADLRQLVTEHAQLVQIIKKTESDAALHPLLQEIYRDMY
Excerpt: as §2
as §1, with “After 5, hours, the cells are washed twice and incubated for 36 hours in the presence of the test compound in a fresh culture medium comprising 10% foetal calf serum.” left out, “measured.” for “measured. This activity is expressed relative to the control value.”

[4] = tested on: pGL3 reporter vector devoid of a PPAR response element; assay: pGL3 reporter vector devoid of a PPAR response element, CV1 cells; assay type: cell-based, green monkey
Excerpt: as §1

[5] = tested on: db/db mice; assay: Antidiabetic and hypolipidaemic activity by the oral route in db/db mice; assay type: in vivo; details: 100 mg/kg/day per os
Protocol: The antidiabetic and hypolipidaemic activity of the compounds of formula I [sic] was determined by the oral route in db/db mice.
Two-month-old db/db mice are treated per os for 15 days with the compound of Example 16 (100 mg/kg/day). Each study group comprises seven animals. After treating for three days (D3) and fifteen days (D15), retro-orbital samples are taken after light anaesthesia and fasting for 4 hours.
The following measurements were taken:
quantitative determination of glycaemia (glucose oxidase) at D3 and D15 and of the lipid parameters with regard to the sera at D15 (COBAS): triglycerides, total cholesterol (CHOL), HDL cholesterol (HDL-C) and free fatty acids (FFA) (BioMérieux and Wako Chemicals quantitative determination kit).
The measurements which appear in this table are mean values±standard error.

[6] = day 15, serum, mean ± standard error

| melting point [°C] | SMILES | further results |
| --- | --- | --- |
| 194 to 196 | CC(/C=C/C1=CC(C)(C)COc2ccc(-c3ccc(C(F)(F)F)cc3)cc21)=C\C(=O)O [Example 45B, (2E, 4E)-5-[3,3-Dimethyl-7-(4-(trifluoromethyl)phenyl)-2,3-dihydrobenzo[b]-oxepin-5-yl]-3-methylpenta-2,4-dienoic acid] |  |
| 159 to 161 | COc1ccc2c(c1)C(/C=C/C(C)=C/C(=O)O)=CC(C)(C)CS2 [Example 47B, (2E, 4E)-5-(7-Methoxy-3,3-dimethyl-2,3-dihydrobenzo[b]-thiepin-5-yl)-3-methylpenta-2,4-dienoic acid] |  |
| 176 | CC(=C/C(=O)O)/C=C/C1=Cc2ccccc2OC1(C)C [Example 5b] |  |
| 226 to 228 | CC(/C=C/C1=Cc2ccccc2OC1)=C\C(=O)O [Example 3b] |  |
|  | COc1ccc2c(c1)C(/C=C/C(C)=C/C(=O)O)=CC(C)(C)CO2 [Example 16b, (2E, 4E)-5-(3,3-Dimethyl-7-methoxy-2,3-dihydrobenzoxepin-5-yl)-3-methylpenta-2,4-dienoic acid] | luciferase activity with pGL3 reporter vector devoid of a PPAR response element [1]: inactive; increase of the luciferase signal [2]: 300%; increase of the luciferase signal [3]: 250%; luciferase activity with pGL3 reporter vector devoid of a PPAR response element [4]: inactive; Glycaemia D3, % variation with respect to the control ([5]; day 3): −28%; Glycaemia D3 ([5]; day 3, fasting 4 hours, mean ± standard error): 15.4 ± 3.8 mM; Glycaemia D15, % variation with respect to the control ([5]; day 15): −40%; Glycaemia D15 ([5]; day 15, fasting 4 hours, mean ± standard error): 16.7 ± 4.4 mM; CHOL D15, % variation with respect to the control ([5]; day 15, serum): +19%; FFA, % variation with respect to the control ([5]; day 15, serum): −20%; HDL-C D15, % variation with respect to the control ([5]; day 15, serum): +18%; Triglycerides D15, % variation with respect to the control ([5]; day 15, serum): −68%; CHOL D15 (total cholesterol) [5, 6]: 4.44 ± 0.39 mM; FFA (free fatty acids) [5, 6]: 0.82 ± 0.23 (ns) mM; HDL-C D15 (HDL cholesterol) [5, 6]: 3.50 ± 0.37 mM; Triglycerides D15 [5, 6]: 0.69 ± 0.09 mM |
| 113 to 115 | CCOC(=O)/C=C(C)/C=C/C1=CC(C)(C)COc2cc(-c3ccc(F)cc3)ccc21 [Example 38A, (2E, 4E)-5-[8-(4-Fluorophenyl)-3,3-dimethyl-2,3-dihydrobenzo[b]-oxepin-5-yl]-3-methylpenta-2,4-dienoic acid ethyl ester] |  |
| 160 to 162 | COc1cccc2c1C(/C=C/C(C)=C/C(=O)O)=CC(C)(C)O2 [Example 46B, (2E, 4E)-5-(5-Methoxy-2,2-dimethyl-2H-chromen-4-yl)-3-methylpenta-2,4-dienoic acid] |  |
| 216 to 218 | CC1=C(/C=C/C(C)=C/C(=O)O)COc2ccccc21 [Example 11b] |  |
| 224 to 226 | CC(=C/C(=O)O)/C=C/C1=Cc2ccccc2OC1 [Example 12b] |  |
| 173 to 174 | COc1ccc2c(c1)C(/C=C/C(C)=C/C(=O)O)=CC1(CCCCC1)CO2 [Example 34B, (2E, 4E)-5-(Spiro[(7-methoxy-2,3-dihydrobenzo[b]-oxepine)-3,1′-cyclohexane]-5-yl)-3-methyl-penta-2,4-dienoic acid] |  |
| 258 to 260 | CC(/C=C/C1=C(c2ccccc2)c2ccccc2OC1)=C\C(=O)O [Example 7b] |  |
| 174 to 176 | CCCC(/C=C/C1=CC(C)(C)COc2ccc(OC)cc21)=C\C(=O)O [Example 49B, (2E, 4E)-5-(7-Methoxy-3,3-dimethyl-2,3-dihydrobenzo[b]-oxepin-5-yl)-3-propylpenta-2,4-dienoic acid] |  |
| 166 to 168 | CCC(/C=C/C1=CC(C)(C)COc2ccc(OC)cc21)=C\C(=O)O [Example 43B, (2E, 4E)-3-Ethyl-5-(7-methoxy-3,3-dimethyl-2,3-dihydrobenzo[b]-oxepin-5-yl)penta-2,4-dienoic acid] |  |
| 129 to 130 | COc1ccc2c(c1)C(/C=C/C(C)=C/C(=O)O)=C(C)C(C)(C)CO2 [Example 54B, (2E, 4E)-5-(7-Methoxy-3,3,4-trimethyl-2,3-dihydrobenzo[b]-oxepin-5-yl)-3-methylpenta-2,4-dienoic acid] |  |
| 207 to 209 | CC(/C=C/C1=CC(C)(C)COc2cc(-c3ccc(F)cc3)ccc21)=C\C(=O)O [Example 38B, (2E, 4E)-5-[8-(4-Fluorophenyl)-3,3-dimethyl-2,3-dihydrobenzo[b]-oxepin-5-yl]-3-methylpenta-2,4-dienoic acid] |  |
| 178 to 180 | COc1ccc2c(c1)OCC(C)(C)C=C2/C=C/C(C)=C/C(=O)O [Example 39B, (2E, 4E)-5-(8-Methoxy-3,3-dimethyl-2,3-dihydrobenzo[b]-oxepin-5-yl)-3-methylpenta-2,4-dienoic acid] |  |
| 110 to 112 | CCOC(=O)/C=C(C)/C=C/C1=Cc2ccccc2OC1 [Example 3a] |  |
| 171 to 173 | CC(/C=C/C1=CC(C)(C)COc2cc(C)c(C)cc21)=C\C(=O)O [Example 37B, 3-Methyl-5-(3,3,7,8-tetramethyl-2,3-dihydrobenzo[b]-oxepin-5-yl)penta-2,4-dienoic acid] |  |
| 154 to 156 | CCCCCC1C=C(/C=C/C(C)=C/C(=O)O)c2cc(OC)ccc2OC1 (stereo not drawn) [Example 41, (2E, 4E)-5-(7-Methoxy-3-pentyl-2,3-dihydrobenzo[b]-oxepin-5-yl)-3-methylpenta-2,4-dienoic acid] |  |
| 200 to 202 | CC(/C=C/C1=Cc2ccccc2OC1c1ccccc1)=C\C(=O)O (stereo not drawn) [Example 14b] |  |
| 195 to 196 | CC(/C=C/C1=CC(C)(C)COc2ccc(C3CCCCC3)cc21)=C\C(=O)O [Example 50B, (2E, 4E)-5-(7-Cyclohexyl-3,3-dimethyl-2,3-dihydrobenzo[b]-oxepin-5-yl)-3-methylpenta-2,4-dienoic acid] |  |
| 145 | CC(/C=C/C1=CC(C)(C)COc2ccc(C(C)C)cc21)=C\C(=O)O [Example 40B, (2E, 4E)-5-(7-Isopropyl-3,3-dimethyl-2,3-dihydrobenzo[b]-oxepin-5-yl)-3-methylpenta-2,4-dienoic acid] |  |
| 147 to 149 | CCCCCC(/C=C/C1=CC(C)(C)COc2ccc(OC)cc21)=C\C(=O)O [Example 52B, (2E, 4E)-5-(7-Methoxy-3,3-dimethyl-2,3-dihydrobenzo[b]-oxepin-5-yl)-3-pentylpenta-2,4-dienoic acid] |  |
| 164 to 166 | CC(/C=C/C1=Cc2ccccc2OC1(C)C)=C\C(=O)O [Example 4b] |  |
| 206 | CC(/C=C/C1=CC(C)(C)COc2ccc(O)cc21)=C\C(=O)O [Example 44B] |  |
| 162 to 163 | COc1ccc2c(c1)OC(C)(C)C=C2/C=C/C(C)=C/C(=O)O [Example 48B, (2E, 4E)-5-(7-Methoxy-2,2-dimethyl-2H-chromen-4-yl)-3-methylpenta-2,4-dienoic acid] |  |
| 104 to 106 | CCCCCCCCCNC1Oc2ccccc2C=C1/C=C/C(C)=C/C(=O)O (stereo not drawn) |  |
